Laboratory results taken from patent US8114583B2, “Switch-region: target and method for inhibition of bacterial RNA polymerase” (priority 2005, dated 2012).

How the values were obtained:
Micrococcus luteus = settings: cited from earlier work
Escherichia coli RNAP = Escherichia coli RNAP (Escherichia coli, UniProt P0A8T7+P0A8V2); type: biochemical
Source text: (A) DNA construct SEQ ID NO:133. (B) Data.
(A) DNA construct SEQ ID NO:134. (B) Data.
Applicant has performed transcription and DNA-binding experiments in order to define the basic mechanism of transcription inhibition by Myx (methods as in Mukhopadhyay, et al. (2004) Mol. Cell. 14, 739-751).
Applicant has performed DNA binding experiments with a series of subfragments of promoter DNA in order to map the interaction of RNAP with promoter DNA inhibited by Myx (methods as in Mukhopadhyay, et al. (2004) Mol. Cell. 14, 739-751). […] This DNA segment corresponds, precisely, to the DNA segment proposed to bind within the RNAP active-center cleft, and to be affected by clamp opening and closing, in structural models of transcription initiation complexes (see Ebright (2000) J. Mol. Biol. 304, 687-698; Murakami, et al. (2003) Curr. Opin. Stuct. Biol. 12, 89-97; Borukhov & Nudler (2003) Curr. Opin. Microbiol. 6, 93-100; Murakami, et al. (2002) Science 296, 1285-1290; Naryshkin, et al. (2000) Cell 101, 601-611; Mekler, et al. (2002) Cell 108, 599-614).

B. megaterium = settings: cited from earlier work
bacterial RNAP = bacterial RNAP (Escherichia coli, UniProt P0A8T7+P0A8V2); settings: read-out: Ki, inhibition of bacterial RNAP; cited from earlier work
[1] = tested on: Escherichia coli DH21tolC; settings: cited from earlier work
[2] = tested on: Escherichia coli DH21tolC; assay: bacteriocidal activity; type: cell-based; settings: unpublished data
[3] = tested on: Escherichia coli with substitutions in RNAP β′ subunit (rpoC) or β subunit (rpoB); assay: MIC ratio (MIC mutant/MIC wild-type) of resistant rpoC/rpoB mutants; type: cell-based
Source text: To identify determinants for function of Myx, Applicant has performed random mutagenesis of genes encoding Escherichia coli RNAP β′ subunit (rpoC) and β subunit (rpoB), and has isolated and sequenced five independent Myx-resistant mutants (methods as described in Mukhopadhyay, et al. (2004) Mol. Cell. 14, 739-751).
To further define determinants for function of Myx, Applicant has performed saturation mutagenesis of genes encoding Escherichia coli RNAP β′ subunit (rpoC) and β subunit (rpoB), and has isolated and sequenced more than 100 independent Myx-resistant mutants (methods as described in Mukhopadhyay, et al. (2004) Mol. Cell. 14, 739-751; Tuske, et al. […] Cell 122, 541-552). Saturation mutagenesis was performed using a set of “doped” oligodeoxyribonucleotide primers targeting all codons for residues located within 30 Å of β′ residue 345 and β residues 1275 and 1292 in the three-dimensional structure of bacterial RNAP (primer sequences in Table 2). […]

Bacillus subtilis = settings: cited from earlier work
[4] = tested on: Corynebacterium mediolanum; settings: cited from earlier work
eukaryotic RNAP II = settings: cited from earlier work

Sequence of Escherichia coli RNAP (P0A7Z4 whole entry): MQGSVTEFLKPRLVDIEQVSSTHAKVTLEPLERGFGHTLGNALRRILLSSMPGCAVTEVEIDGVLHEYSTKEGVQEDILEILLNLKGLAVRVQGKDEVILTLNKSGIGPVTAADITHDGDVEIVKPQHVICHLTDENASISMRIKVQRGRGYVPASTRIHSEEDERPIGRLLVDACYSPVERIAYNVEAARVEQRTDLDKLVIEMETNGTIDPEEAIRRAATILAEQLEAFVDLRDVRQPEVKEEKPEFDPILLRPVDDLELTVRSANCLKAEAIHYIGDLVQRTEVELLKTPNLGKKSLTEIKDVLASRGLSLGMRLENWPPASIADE
Sequence of Escherichia coli RNAP (P0A8V2 whole entry): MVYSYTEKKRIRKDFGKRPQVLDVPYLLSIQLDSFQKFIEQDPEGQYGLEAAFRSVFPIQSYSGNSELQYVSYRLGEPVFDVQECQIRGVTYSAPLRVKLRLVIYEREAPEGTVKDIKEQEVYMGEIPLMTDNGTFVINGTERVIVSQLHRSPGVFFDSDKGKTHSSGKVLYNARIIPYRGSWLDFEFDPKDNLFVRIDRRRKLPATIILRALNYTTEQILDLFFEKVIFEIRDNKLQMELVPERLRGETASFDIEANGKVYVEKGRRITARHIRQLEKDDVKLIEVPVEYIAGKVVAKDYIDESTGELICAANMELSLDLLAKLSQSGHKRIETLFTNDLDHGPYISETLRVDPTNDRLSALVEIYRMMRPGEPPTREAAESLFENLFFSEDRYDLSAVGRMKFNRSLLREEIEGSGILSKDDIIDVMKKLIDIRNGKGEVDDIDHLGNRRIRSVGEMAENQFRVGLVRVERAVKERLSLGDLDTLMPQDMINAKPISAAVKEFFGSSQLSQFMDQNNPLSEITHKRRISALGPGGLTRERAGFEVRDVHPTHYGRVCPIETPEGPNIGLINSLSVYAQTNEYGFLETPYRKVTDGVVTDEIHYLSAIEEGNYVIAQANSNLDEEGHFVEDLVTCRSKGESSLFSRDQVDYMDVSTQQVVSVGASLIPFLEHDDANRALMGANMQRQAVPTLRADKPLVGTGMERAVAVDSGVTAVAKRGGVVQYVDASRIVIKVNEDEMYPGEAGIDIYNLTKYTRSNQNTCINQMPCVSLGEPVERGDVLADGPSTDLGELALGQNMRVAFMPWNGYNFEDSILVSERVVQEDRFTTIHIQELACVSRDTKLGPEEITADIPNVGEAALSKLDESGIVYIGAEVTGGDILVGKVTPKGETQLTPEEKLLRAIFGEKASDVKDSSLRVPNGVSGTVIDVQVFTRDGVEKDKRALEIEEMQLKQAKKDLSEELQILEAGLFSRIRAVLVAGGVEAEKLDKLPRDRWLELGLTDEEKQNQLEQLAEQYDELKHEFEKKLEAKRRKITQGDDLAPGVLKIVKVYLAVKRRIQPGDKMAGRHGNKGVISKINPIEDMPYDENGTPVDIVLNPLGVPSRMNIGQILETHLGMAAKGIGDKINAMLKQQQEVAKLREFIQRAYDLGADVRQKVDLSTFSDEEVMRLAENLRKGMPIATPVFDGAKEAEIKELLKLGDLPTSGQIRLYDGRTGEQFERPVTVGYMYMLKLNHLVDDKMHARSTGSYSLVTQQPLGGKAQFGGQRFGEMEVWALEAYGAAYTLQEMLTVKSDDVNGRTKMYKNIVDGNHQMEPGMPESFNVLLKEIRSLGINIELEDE
Sequence of Escherichia coli RNAP (P0A800 whole entry, further chain): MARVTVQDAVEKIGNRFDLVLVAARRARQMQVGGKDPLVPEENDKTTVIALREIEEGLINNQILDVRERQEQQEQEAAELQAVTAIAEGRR
Sequence of Escherichia coli RNAP (P0A8T7 whole entry): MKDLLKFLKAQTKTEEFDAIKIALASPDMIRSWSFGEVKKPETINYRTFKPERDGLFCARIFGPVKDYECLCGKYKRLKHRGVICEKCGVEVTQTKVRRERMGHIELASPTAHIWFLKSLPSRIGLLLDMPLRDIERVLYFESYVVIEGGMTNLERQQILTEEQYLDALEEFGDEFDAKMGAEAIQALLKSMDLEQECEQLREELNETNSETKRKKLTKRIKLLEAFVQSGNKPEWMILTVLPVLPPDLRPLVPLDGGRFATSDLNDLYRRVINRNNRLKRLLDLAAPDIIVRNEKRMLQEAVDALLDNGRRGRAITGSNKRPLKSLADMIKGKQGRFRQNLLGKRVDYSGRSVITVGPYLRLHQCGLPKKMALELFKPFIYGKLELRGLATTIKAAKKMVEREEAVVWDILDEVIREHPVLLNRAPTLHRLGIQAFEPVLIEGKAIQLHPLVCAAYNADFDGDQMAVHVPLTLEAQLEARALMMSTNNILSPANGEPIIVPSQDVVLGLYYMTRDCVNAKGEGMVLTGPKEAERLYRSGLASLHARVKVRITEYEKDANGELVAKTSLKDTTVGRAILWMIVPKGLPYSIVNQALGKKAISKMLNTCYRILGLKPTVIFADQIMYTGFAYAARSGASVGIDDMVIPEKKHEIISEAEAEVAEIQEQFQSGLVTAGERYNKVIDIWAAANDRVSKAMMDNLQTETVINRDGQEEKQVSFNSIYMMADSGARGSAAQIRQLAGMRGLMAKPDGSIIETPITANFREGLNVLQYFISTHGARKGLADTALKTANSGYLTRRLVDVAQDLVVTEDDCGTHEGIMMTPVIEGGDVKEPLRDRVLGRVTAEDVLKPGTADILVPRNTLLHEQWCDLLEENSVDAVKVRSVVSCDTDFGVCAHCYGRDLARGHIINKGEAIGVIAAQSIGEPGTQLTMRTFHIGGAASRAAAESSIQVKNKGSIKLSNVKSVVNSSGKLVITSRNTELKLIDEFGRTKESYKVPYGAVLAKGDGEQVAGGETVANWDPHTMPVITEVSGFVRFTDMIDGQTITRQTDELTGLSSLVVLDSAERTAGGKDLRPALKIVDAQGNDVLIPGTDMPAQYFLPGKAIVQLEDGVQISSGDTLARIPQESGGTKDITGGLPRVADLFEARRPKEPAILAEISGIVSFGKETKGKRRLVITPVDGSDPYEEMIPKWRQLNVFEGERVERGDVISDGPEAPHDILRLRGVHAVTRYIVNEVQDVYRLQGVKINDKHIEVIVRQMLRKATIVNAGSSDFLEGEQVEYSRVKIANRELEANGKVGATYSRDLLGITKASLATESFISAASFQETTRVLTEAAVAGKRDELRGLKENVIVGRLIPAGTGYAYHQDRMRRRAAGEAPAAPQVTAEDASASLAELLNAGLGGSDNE
Sequence of Escherichia coli RNAP (P00579 whole entry, further chain): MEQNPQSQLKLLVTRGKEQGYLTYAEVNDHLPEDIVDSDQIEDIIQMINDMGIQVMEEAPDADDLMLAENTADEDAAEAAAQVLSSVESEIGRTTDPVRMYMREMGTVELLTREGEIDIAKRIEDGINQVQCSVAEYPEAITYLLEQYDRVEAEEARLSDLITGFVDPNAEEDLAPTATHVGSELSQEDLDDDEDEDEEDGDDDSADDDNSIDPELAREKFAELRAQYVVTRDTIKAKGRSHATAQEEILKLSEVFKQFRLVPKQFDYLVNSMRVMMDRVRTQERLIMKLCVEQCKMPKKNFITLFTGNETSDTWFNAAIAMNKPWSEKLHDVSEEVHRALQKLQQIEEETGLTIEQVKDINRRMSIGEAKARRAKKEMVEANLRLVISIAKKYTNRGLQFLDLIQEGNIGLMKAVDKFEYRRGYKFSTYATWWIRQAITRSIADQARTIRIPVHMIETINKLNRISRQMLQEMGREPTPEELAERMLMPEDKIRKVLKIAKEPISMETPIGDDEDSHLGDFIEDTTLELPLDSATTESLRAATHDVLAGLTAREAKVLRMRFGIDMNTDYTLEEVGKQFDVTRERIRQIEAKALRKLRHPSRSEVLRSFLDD

C/C=C/C/C=C(\C)C(O)CC/C(C)=C/C=C(\C)C(=O)c1c(O)cc([C@H](C)CC/C=C/NC(=O)OC)oc1=O (stereo partly drawn) [Cor, corallopyronin]
bacteriocidal: bacteriocidal or not [2]
4 µM: Ki (bacterial RNAP)
8: MIC ratio (MIC, mutant/MIC, wild-type) ([3]; rpoB 1279 Glu→Lys) | MIC ratio (MIC, mutant/MIC, wild-type) ([3]; rpoB 1322 Ser→Val) | MIC ratio (MIC, mutant/MIC, wild-type) ([3]; rpoC 345 Lys→Asn) | MIC ratio (MIC, mutant/MIC, wild-type) ([3]; rpoC 345 Lys→Thr)
1: MIC ratio (MIC, mutant/MIC, wild-type) ([3]; rpoB 1285 Tyr→Asp) | MIC ratio (MIC, mutant/MIC, wild-type) ([3]; rpoB 1291 Leu→Phe)
2: MIC ratio (MIC, mutant/MIC, wild-type) ([3]; rpoB 1298 Val→Leu) | MIC ratio (MIC, mutant/MIC, wild-type) ([3]; rpoB 1315 Met→Leu) | MIC ratio (MIC, mutant/MIC, wild-type) ([3]; rpoB 1317 Pro→Leu) | MIC ratio (MIC, mutant/MIC, wild-type) ([3]; rpoC 1354 Gly→Cys)
4: MIC ratio (MIC, mutant/MIC, wild-type) ([3]; rpoB 1255 Thr→Ile) | MIC ratio (MIC, mutant/MIC, wild-type) ([3]; rpoB 1278 Leu→Val) | MIC ratio (MIC, mutant/MIC, wild-type) ([3]; rpoB 1279 Glu→Gly) | MIC ratio (MIC, mutant/MIC, wild-type) ([3]; rpoB 1283 Ala→Val) | MIC ratio (MIC, mutant/MIC, wild-type) ([3]; rpoB 1320 Pro→Ala) | MIC ratio (MIC, mutant/MIC, wild-type) ([3]; rpoB 1322 Ser→Pro) | MIC ratio (MIC, mutant/MIC, wild-type) ([3]; rpoB 1322 Ser→Thr) | MIC ratio (MIC, mutant/MIC, wild-type) ([3]; rpoB 1322 Ser→Tyr) | MIC ratio (MIC, mutant/MIC, wild-type) ([3]; rpoB 1325 Val→Leu) | MIC ratio (MIC, mutant/MIC, wild-type) ([3]; rpoC 1346 Gly→Asp) | MIC ratio (MIC, mutant/MIC, wild-type) ([3]; rpoC 1352 Ile→Asn) | MIC ratio (MIC, mutant/MIC, wild-type) ([3]; rpoC 1352 Ile→Ser)
>8: MIC ratio (MIC, mutant/MIC, wild-type) ([3]; rpoB 1275 Val→Met) | MIC ratio (MIC, mutant/MIC, wild-type) ([3]; rpoB 1275 Val→Phe) | MIC ratio (MIC, mutant/MIC, wild-type) ([3]; rpoB 1326 Leu→Trp) | MIC ratio (MIC, mutant/MIC, wild-type) ([3]; rpoC 345 Lys→Arg) | MIC ratio (MIC, mutant/MIC, wild-type) ([3]; rpoC 1351 Val→Phe)
same mechanism as Myx: effects on transcription, promoter binding, and promoter-subfragment binding (Escherichia coli RNAP)
≤ 10 µg/mL: MIC (Micrococcus luteus) | MIC (B. megaterium) | MIC [1] | MIC (Bacillus subtilis) | MIC [4]
does not inhibit: inhibition of eukaryotic RNAP II (eukaryotic RNAP II)
